Measurements published in patent publication US8420592B2, “Methods of treatment using single doses of oritavancin” (The Medicines Company, priority 2008, dated 2013).
In brackets after ≈: the same amount, converted by molar mass.

Columns and labels:
[1] = Phase 2 cSSSI study: safety and tolerability; assay type: in vivo, human
Procedure: A phase 2, multi-center, randomized, double-blind, parallel, active-comparator study in which three dose regimens of oritavancin were explored as a treatment for cSSSI due to gram-positive pathogens was conducted using: a daily dose (200 mg) administered for three to seven days, a single dose (1200 mg), and an infrequent dose (800 mg dose with option for an additional 400 mg on Day 5).
Patients were randomized through an interactive voice response system in a 1:1:1 ratio to receive either 1) oritavancin […] daily dose: 200 mg IV daily for 3 to 7 days as determined by the investigator based on clinical criteria, 2) oritavancin single dose: 1200 mg oritavancin IV on Day 1, or; 3) oritavancin infrequent dose: 800 mg IV on Day 1 with optional 400 mg IV on Day 5 as determined by investigator based on clinical criteria. During randomization patients were stratified by disease categories of wound infection, major abscess, and cellulitis. Placebo IV (5% dextrose in water) was given to maintain the blind.
Analyses were performed on four patient populations: intent-to-treat (ITT), modified intent-to-treat (MITT), clinically evaluable (CE) and microbiologically evaluable (ME). The ITT population included patients who were randomized to treatment and received any amount of study medication. Two patients who were potentially unblinded were excluded from the ITT population for all efficacy analyses. The MITT population included all ITT patients with a gram-positive pathogen isolated at baseline.

MRSA [2] = test: MIC by broth microdilution with 0.002% polysorbate-80, baseline isolates of MITT population; assay type: cell-based; settings: Staphylococcus aureus; MRSA subset
Procedure: (§1) Blood and infection site cultures were obtained within three days of enrollment (often done at the time of enrollment). End-of-therapy, TOC, and late follow-up (or at early relapse) cultures were obtained from the infection site if clinically indicated. […] Specimens were cultured and pathogens were identified at each investigative site's certified laboratory. All isolated gram-positive pathogen(s) that were obtained from the infection site at baseline/randomization and up to and including the TOC time point were subcultured and sent to a central laboratory (Covance Clinical Laboratories, Indianapolis, Ind.) for confirmatory identification and susceptibility testing. In cases of discrepancy between the local and the central laboratory, central laboratory results were used.
(§2) At least one gram-positive organism was isolated from the infection site at baseline in 209 patients (69.2%) in the ITT population. The most commonly isolated pathogen was S. aureus, which was isolated from 87.6% (183/209) of MITT patients. MRSA was isolated in 49% (103/209) of MITT patients. The other three most common pathogens identified in the MITT population were Streptococcus pyogenes (5.7%, 12/209), Streptococcus agalactiae (3.8%, 8/209) and Enterococcus faecalis (3.8%, 8/209). The range of oritavancin minimum inhibitory concentrations (MICs) for S. aureus in the MITT population, as assessed using broth microdilution with 0.002% polysorbate-80, was 0.008 to 0.5 μg/mL.

S. aureus = test: as above; assay type: cell-based; settings: Staphylococcus aureus; all S. aureus
Procedure: as §1, §2

MSSA [3] = test: as above; assay type: cell-based; settings: Staphylococcus aureus; MSSA subset
Procedure: as §1, §2

[4] = tested on: S. aureus (MSSA, MRSA, and VRSA); settings: within 15 minutes to 2 hours against MSSA, McKay et al. 2009; cited from earlier work
MRSA [5] = test: Phase 2 cSSSI study: cure rate by baseline pathogen; assay type: in vivo, Staphylococcus aureus; settings: MRSA at baseline, TOC
Procedure: (§3) The primary efficacy endpoint was the clinical response in the CE population at TOC, which occurred 20 to 28 days after study enrollment on Day 1. Clinical response was determined by the investigator as part of the end-of-therapy, TOC, and late follow-up procedures by assessing signs and symptoms including fever, pain, tenderness, erythema, induration, edema, purulent drainage, eschar, and devitalized tissue. A clinical response of cure, improvement, failure, or indeterminate was assigned at end-of-therapy and TOC by the investigator based on clinical signs and symptoms. At late follow-up, the investigator could assign the clinical response of relapse in addition to cure, improvement, or indeterminate. Only patients with a clinical response of cure or improvement at TOC were assessed for clinical response at late follow-up.
(§4) Cure was defined as resolution of purulent drainage, pain, edema, fever, erythema, tenderness, and induration. Serous drainage or aspirate and/or granulation tissue could be present. Improvement was defined as resolution of purulent drainage and, in the case of cellulitis, cessation of fever and pain. Residual erythema, edema, pain (in the case of wound or abscess), tenderness, and/or induration could be present as could serous drainage, granulation tissue, eschar, and/or devitalized tissue. Failure included any of the following: presence of purulent drainage (or aspirate) and/or fever; the unanticipated need for abscess drainage or removal of sutures (for treatment of infection)>48 hours after initiation of study therapy; or treatment with nonstudy systemic antibiotic having activity against gram-positive pathogen(s) for the primary infection site or use of topical antibiotics at the site of primary infection 24 hours or more after initiation of study medication therapy.
as §1

MSSA [6] = test: as above; assay type: in vivo, Staphylococcus aureus; settings: MSSA at baseline
Procedure: as §3, §4, §1

## CN[C@H](CC(C)C)C(=O)N[C@H]1C(=O)N[C@@H](CC(N)=O)C(=O)N[C@H]2C(=O)N[C@H]3C(=O)N[C@H](C(=O)N[C@H](C(=O)O)c4cc(O)cc(O)c4-c4cc3ccc4O)[C@H](O[C@H]3C[C@](C)(N)[C@@H](O)[C@H](C)O3)c3ccc(c(Cl)c3)Oc3cc2cc(c3O[C@@H]2O[C@H](CO)[C@@H](O)[C@H](O)[C@H]2O[C@H]2C[C@](C)(NCc3ccc(-c4ccc(Cl)cc4)cc3)[C@@H](O)[C@H](C)O2)Oc2ccc(cc2Cl)[C@H]1O [Oritavancin, N-(4-(4-chlorophenyl)benzyl)A82846B]
[1]; all groups (25 patients)
  Patients with a serious adverse event: 8.3%
[1]; all three treatment groups together (10/302)
  Early discontinuation of study medication for lack of efficacy: 3.3%
[1]; daily dose group
  Adverse events being mild: 51.8%
  Adverse events considered mild or moderate in intensity: 85.7%
  Incidence of serious adverse events: 11%
  Patients who discontinued study medication due to an adverse event: 3.0%
  Patients with phlebitis assessed as related to study medication: 3.0%
[1]; daily dose group, none related to study medication
  Patients who died during the study (n/total): 3/100
[1]; infrequent dose group
  Adverse events being mild: 60.3%
  Adverse events considered mild or moderate in intensity: 95.2%
  Incidence of serious adverse events: 6.8%
  Patients who discontinued study medication due to an adverse event: 1.0%
  Patients with phlebitis assessed as related to study medication: 8.7%
[1]; infrequent dose group, 800 mg only
  Patients with related phlebitis: 11.8%
[1]; infrequent dose group, 800 mg plus the 400 mg dose
  Patients with related phlebitis: 7.2%
[1]; infrequent dose group, none related to study medication
  Patients who died during the study (n/total): 2/103
[1]; single dose group
  Adverse events being mild: 58.2%
  Adverse events considered mild or moderate in intensity: 94.5%
  Incidence of serious adverse events: 7.1%
  Patients who died during the study (n/total): 0/99
  Patients who discontinued study medication due to an adverse event: 3.0%
  Patients with phlebitis assessed as related to study medication: 4.0%
[1]; single dose group (dyspnoea; hypersensitivity)
  Serious adverse event investigator-assessed as related to study medication: Two
[1]; single dose group compared to the daily and infrequent dose groups
  Blood creatine phosphokinase (CPK) increase: higher incidence
MRSA [2]
  MIC90: 0.12 µg/mL (≈ 0.0669 µM)
S. aureus
  MIC90: 0.12 µg/mL (≈ 0.0669 µM)
MSSA [3]
  MIC90: 0.12 µg/mL (≈ 0.0669 µM)
[4]
  Bactericidal activity, log reduction: ≥ 3 log
MRSA [5]; 200 mg daily dose
  % of patients cured (cure and improvement): 78.3%
MRSA [5]; 800 mg infrequent dose
  % of patients cured (cure and improvement): 87.0%
MRSA [5]; 1200 mg single dose
  % of patients cured (cure and improvement): 73.0%
MSSA [6]; 200 mg daily dose
  % of patients cured (cure and improvement): 56.5%
MSSA [6]; 800 mg infrequent dose
  % of patients cured (cure and improvement): 68.8%
MSSA [6]; 1200 mg single dose
  % of patients cured (cure and improvement): 90.9%
